Laboratory results reported in publication PMC6264139, “Schiff Bases of Indoline-2,3-dione: Potential Novel Inhibitors of Mycobacterium Tuberculosis (Mtb) DNA Gyrase ^†” (Molecules, 2011).

SMILES | melting point
O=C1Nc2ccc(Cl)cc2/C1=N/NC(=O)c1cc2ccccc2o1 [Compound 17, (Z)-N'-(5-Chloro-2-oxoindolin-3-ylidene)benzofuran-2-carbohydrazide] | 335 to 338 °C
O=C1Nc2ccc([N+](=O)[O-])cc2/C1=N/NC(=O)c1cc2ccccc2o1 [Compound 19, (Z)-N'-(5-Nitro-2-oxoindolin-3-ylidene)benzofuran-2-carbohydrazide] | 367 to 369 °C
Cc1ccc2c(c1)/C(=N/NC(=O)c1ccncc1)C(=O)N2Cc1ccccc1 [Compound 13, (Z)-N'-(1-Benzyl-5-methyl-2-oxoindolin-3-ylidene)isonicotinohydrazide] | 159 to 162 °C
O=C1Nc2ccc(F)cc2/C1=N/NC(=O)c1ccncc1 [Compound 5, (Z)-N'-(5-Fluoro-2-oxoindolin-3-ylidene)isonicotinohydrazide] | 346 to 348 °C
Cc1ccc2c(c1)/C(=N/NC(=O)c1cc3ccccc3o1)C(=O)N2 [Compound 18, (Z)-N'-(5-Methyl-2-oxoindolin-3-ylidene)benzofuran-2-carbohydrazide] | 331 to 336 °C
O=C1Nc2ccc(Cl)cc2/C1=N/NC(=O)c1ccncc1 [Compound 4, (Z)-N'-(5-Chloro-2-oxoindolin-3-ylidene)isonicotinohydrazide] | 345 to 348 °C
Cc1ccc2c(c1)/C(=N/NC(=O)c1ccncc1)C(=O)N2 [Compound 6, (Z)-N'-(5-Methyl-2-oxoindolin-3-ylidene)isonicotinohydrazide] | 319 to 322 °C
O=C1Nc2ccccc2/C1=N/NC(=O)c1cccnc1 [Compound 14, (Z)-N'-(2-Oxoindolin-3-ylidene)nicotinohydrazide] | 254 to 256 °C
O=C1/C(=N\NC(=O)C23CC4CC(CC(C4)C2)C3)c2ccccc2N1c1ccccc1 [Compound 22, (Z)-N'-(2-oxo-1-phenylindolin-3-ylidene)adamantane-1-carbohydrazide] | 201 to 203 °C
O=C(N/N=C1\C(=O)N(Cc2ccccc2)c2ccc(Cl)cc21)c1ccncc1 [Compound 11, (Z)-N'-(1-Benzyl-5-chloro-2-oxoindolin-3-ylidene)isonicotinohydrazide] | 167 to 171 °C
Cc1cccc(Nc2ccccc2C(=O)N/N=C2\C(=O)N(Cc3ccccc3)c3ccccc32)c1C [Compound 23, (Z)-N'-(1-Benzyl-2-oxoindolin-3-ylidene)-2-(2,3-dimethylphenylamino)benzohydrazide] | 286 to 288 °C
Cc1ccc2c(c1)/C(=N/NC(=O)c1ccccc1Nc1c(Cl)ccc(C)c1Cl)C(=O)N2 [Compound 24, (Z)-2-(2,6-Dichloro-3-methylphenylamino)-N'-(5-methyl-2-oxoindolin-3-ylidene)-benzohydrazide] | 283 to 287 °C
O=C1Nc2ccc(F)cc2/C1=N/NC(=O)c1ccco1 [Compound 15, (Z)-N'-(5-Fluoro-2-oxoindolin-3-ylidene)furan-2-carbhydrazide] | 310 to 312 °C
O=C(N/N=C1\C(=O)N(c2ccccc2)c2ccccc21)c1ccncc1 [Compound 9, (Z)-N'-(2-Oxo-1-phenylindolin-3-ylidene)isonicotinohydrazide] | 201 to 205 °C
O=C1Nc2ccc(F)cc2/C1=N/NC(=O)c1cc2cc([N+](=O)[O-])ccc2o1 [Compound 21, (Z)-N'-(5-Fluoro-2-oxoindolin-3-ylidene)-5-nitrobenzofuran-2-carbhydrazide] | 357 to 359 °C
O=C(N/N=C1\C(=O)N(Cc2ccccc2)c2ccc(F)cc21)c1ccncc1 [Compound 12, (Z)-N'-(1-Benzyl-5-fluoro-2-oxoindolin-3-ylidene)isonicotinohydrazide] | 188 to 192 °C
CCn1cc(C(=O)N/N=C2\C(=O)Nc3ccc(F)cc32)c(=O)c2ccc(C)nc21 [Compound 26, (Z)-1-Ethyl-N'-(5-fluoro-2-oxoindolin-3-ylidene)-7-methyl-4-oxo-1,4-dihydro-1,8-naphthyridine-3-carbohydrazide] | > 360 °C
O=C(N/N=C1\C(=O)N(c2ccccc2)c2ccccc21)c1cc2ccccc2o1 [Compound 20, (Z)-N'-(2-Oxo-1-phenylindolin-3-ylidene)benzofuran-2-carbohydrazide] | 235 to 238 °C
O=C1Nc2ccc(OC(F)(F)F)cc2/C1=N/NC(=O)c1ccncc1 [Compound 7, (Z)-N'-(2-Oxo-5-(trifluoromethoxy)indolin-3-ylidene)isonicotinohydrazide] | 262 to 265 °C
O=C1Nc2ccc([N+](=O)[O-])cc2/C1=N/NC(=O)c1ccncc1 [Compound 8, (Z)-N'-(5-Nitro-2-oxoindolin-3-ylidene)isonicotinohydrazide] | 350 to 353 °C
O=C1Nc2ccccc2/C1=N/NC(=O)c1ccc([N+](=O)[O-])o1 [Compound 16, (Z)-5-Nitro-N'-(2-Oxoindolin-3-ylidene)furan-2-carbohydrazide] | 309 to 311 °C
O=C1Nc2ccc(OC(F)(F)F)cc2/C1=N/NC(=O)c1ccccc1Nc1cccc(C(F)(F)F)c1 [Compound 25, (Z)-N'-(2-Oxo-5-(trifluoromethoxy)indolin-3-ylidene)-2-(3-(trifluoromethyl)phenylamino)-benzo-hydrazide] | 226 °C
